Test system: SK-OV-3 cells
Test: Plasma membrane permeability (DNA-histone complexes in culture medium)
Type: cell-based, human
Conditions: SK-OV-3, 24 h, with 5 µM cyclosporin A added 30 min before
Experimental: Fragmentation of genomic DNA was determined by means of the Cell Death Detection ELISAPLUS kit (Roche, Basel, Switzerland). This method rests on the immunoenzymatic detection of DNA–histone complexes in the cytoplasmic cell fraction or cell culture supernatants. Cells were plated and cultured in 96-well plates (Greiner Bio-One) at the initial density of 5 × 10^3 cells per well in 100 µL of culture medium. Cells were allowed to attach and grow for 1 day prior to the addition of test reagents. Then, the media were replaced with the working solutions (3 µM, 10 µM, 30 µM), and cells were exposed to compounds 2–6 for 24 h. In some cases, 5 µM cyclosporin A (CsA, an inhibitor of the mitochondrial permeability transition) was added to the cells 30 min before treatment with the betulin derivative. Subsequently, cells were incubated concomitantly with both compounds. […] In one experiment, the presence of mono- and oligonucleosomes was determined in 20 µL samples of centrifuged culture supernatants (media) to detect the permeability of plasma membrane (considered as an indicator of cell necrosis). […] Absorbance was measured at 405 nm and 490 nm (reference wavelength), and the enrichment factor of the cytoplasmic (or supernatant) fraction in mono- and oligonucleosomes was calculated according to the formula: EF = absorbance of sample cells/absorbance of control cells.

C#CC(=O)OC[C@]12CC[C@@H](/C(C)=C/P(=O)(OCC)OCC)C1C1CCC3[C@@]4(C)CC[C@H](O)C(C)(C)C4CC[C@@]3(C)[C@]1(C)CC2 (stereo partly shown) [Compound 6, E-29-diethoxyphosphoryl-28-O-propynoylbetulin] was tested, and the “effect of CsA on compound-induced cell death, plasma membrane permeability” value was “almost completely prevented”.
